One test deals with HL-60. Description: Tested in vitro for growth inhibitory activity against HL60 (human promyelocytic leukemic) cells. The class given is functional, cell-based.
The next test concerns 833K. Kind of test: Tested in vitro for growth inhibitory activity against 833K (human teratorcarcinoma) cells. The class given is functional, cell-based.
The test system of test [1] is DC3F. Description: Tested in vitro for growth inhibitory activity against DC-3F (hamster lung) cells. The test is classed as functional, cell-based. The conditions noted are these: Cricetulus griseus.
Test [2] in a line: The compound was evaluated for inhibition of topoisomerase I mediated DNA relaxation of supercoiled DNA; 5-20. The class given is functional.
Test [3] is described as follows: The compound was evaluated for enhancement of topoisomerase I mediated DNA cleavage of supercoiled DNA; 2-5. The class given is functional.
A short description of test [4]: The compound was evaluated for inhibition of topoisomerase I mediated DNA relaxation of supercoiled DNA; 0.1-1. The test is classed as functional.
Test [5] can be described thus: The compound was evaluated for enhancement of topoisomerase I mediated DNA cleavage of supercoiled DNA; 0.1-1. The class given is functional.
Test [6] is described as follows: The compound was evaluated for inhibition of topoisomerase I mediated DNA relaxation of supercoiled DNA; 1-2. The test is classed as functional.
Test [7] is described as follows: The compound was evaluated for enhancement of topoisomerase I mediated DNA cleavage of supercoiled DNA; 1-2. The test is classed as functional.
A short description of test [8]: The compound was evaluated for inhibition of topoisomerase I mediated DNA relaxation of supercoiled DNA. The test is classed as functional.
Test [9] deals with DC3F. Kind of test: The compound was tested in vitro for growth inhibitory activity against DC-3F (hamster lung) cells; Inactive. The test is classed as functional, cell-based, Cricetulus griseus.

Each structure is given as a SMILES string.

For the compound `CC[C@@]1(O)C(=O)OCc2c1cc1n(c2=O)Cc2c-1nc1cc(N)ccc1c2[Si](C)(C)C`, the IC50 in the test with HL-60 was 2.6 nM; in the test with 833K, 7.4 nM; in the test on DC3F [1], 6.4 nM.
As for `CC[C@@]1(O)C(=O)OCc2c1cc1n(c2=O)Cc2c-1nc1ccccc1c2[Si](c1ccccc1)(c1ccccc1)C(C)(C)C`, the IC50 with HL-60 was determined as 339 nM; in the test with 833K it was 243 nM; in the test on DC3F [1] it was 663 nM. Also, the Inhibition in [2] is 5 µM. Further, in test [3], the Enhancement was determined as 2 µM.
Turning to `CC[C@@]1(O)C(=O)OCc2c1cc1n(c2=O)Cc2c-1nc1ccccc1c2[Si](C)(C)C`, the results for the IC50 in the test with HL-60, in the test with 833K and with DC3F [1] were 3.8 nM, 5.6 nM and 4.2 nM, respectively. In addition, in [4], the Inhibition stood at 1 µM. The Enhancement in [5] stood at 0.1 µM.
For the compound `CC[C@@]1(O)C(=O)OCc2c1cc1n(c2=O)Cc2c-1nc1cccc(F)c1c2[Si](C)(C)C`, the IC50 stood at 3 nM in the test with HL-60, 2.9 nM in the test on 833K and 8.2 nM in the test on DC3F [1]. The compound also yielded an Inhibition in [4] of 0.1 µM. In addition, in [5], the Enhancement amounted to 0.1 µM.
On to `CC[C@@]1(O)C(=O)OCc2c1cc1n(c2=O)Cc2c-1nc1ccc(N3CCCC3N3CCCC3OC(N)=O)cc1c2[Si](C)(C)C` (stereo not given in full), for which the IC50 is 66 nM in the test on HL-60, 214 nM in the test on 833K and 256 nM in the test with DC3F [1].
Regarding `CC[C@@]1(O)C(=O)OCc2c1cc1n(c2=O)Cc2cc3ccccc3nc2-1` [CAMPTOTHECIN], the IC50 is 5 nM in the test with HL-60, 10 nM in the test with 833K and 6 nM with DC3F [1]. This compound came in with an Inhibition in test [6] of 1 µM. Besides, the Enhancement in test [7] was 1 µM.
Regarding `CCC(=O)OCc1c([C@@](O)(CC)C(=O)NCCN(C)C)cc2n(c1=O)Cc1c-2nc2ccc(O)cc2c1[Si](C)(C)C`, the IC50 turned out to be 9.7 nM in the test on HL-60, 15 nM in the test with 833K and 14.2 nM with DC3F [1]. Besides, the Enhancement in test [7] was found to be 1 µM. For the same compound, the Inhibition in [2] is 5 µM.
Turning to `CC[C@@]1(O)C(=O)OCc2c1cc1n(c2=O)Cc2c-1nc1ccc(O)cc1c2[Si](C)(C)C`, the half-maximal inhibitory concentration (IC50) was found to be 2.6 nM in the test with HL-60, 7 nM in the test with 833K and 6.9 nM in the test with DC3F [1]. Moreover, the Enhancement in test [5] stood at 0.1 µM. In addition, the Inhibition in test [8] is under 0.1 µM.
As to `CC[C@@]1(O)C(=O)OCc2c1cc1n(c2=O)Cc2c-1nc1cc(F)c(N)cc1c2[Si](C)(C)C`, the IC50 came out at 0.07 nM in the test with HL-60, 0.14 nM in the test with 833K and 0.29 nM in the test with DC3F [1]. The compound further came in with an Inhibition in [4] of 0.1 µM. In [5], the Enhancement is 0.1 µM.
`CCc1c2c(nc3ccc(N4CCCC4N4CCCC4OC(N)=O)cc13)-c1cc3c(c(=O)n1C2)COC(=O)[C@]3(O)CC` (stereo not given in full): the figures for the IC50 in the test with HL-60, in the test with 833K and with DC3F [1] were 270 nM, 487 nM and 372 nM, respectively.
With `CC[C@@]1(O)C(=O)OCc2c1cc1n(c2=O)Cc2c-1nc1ccc(OC(C)=O)cc1c2[Si](C)(C)C`, the IC50 with HL-60 worked out at 2.7 nM; with DC3F [1], 6.7 nM. Also, the Enhancement in test [5] worked out at 0.1 µM. Also, the Inhibition in [8] was under 0.1 µM.
Consider `CC[C@@]1(O)C(=O)OCc2c1cc1n(c2=O)Cc2c-1nc1cc(F)ccc1c2[Si](C)(C)C`, for which the results for the IC50 in the test on HL-60, in the test on 833K and in the test on DC3F [1] were 0.75 nM, 0.92 nM and 2 nM, respectively. Moreover, the Enhancement in [5] turned out to be 0.1 µM. In test [8], this compound registered an Inhibition of under 0.1 µM.
As for `CC[C@@]1(O)C(=O)OCc2c1cc1n(c2=O)Cc2c-1nc1ccc(N)cc1c2[Si](C)(C)C`, the half-inhibitory concentration (IC50) came out at 0.52 nM in the test with HL-60, 5.7 nM with 833K and 0.72 nM in the test with DC3F [1].
As to `CC[C@@]1(O)C(=O)OCc2c1cc1n(c2=O)Cc2c-1nc1ccccc1c2[Si](C)(C)C(C)(C)C`, the IC50 with HL-60 was determined as 0.12 nM; in the test with 833K, 1.2 nM; with DC3F [1] it was 2.9 nM. The compound also came in with an Inhibition in [4] of 1 µM. Besides, the Enhancement in test [5] stood at 0.1 µM.
Regarding `CC[C@@]1(O)C(=O)OCc2c1cc1n(c2=O)Cc2c-1nc1ccc(CCc3ccc4nc5c(c([Si](C)(C)C)c4c3)Cn3c-5cc4c(c3=O)COC(=O)[C@]4(O)CC)cc1c2[Si](C)(C)C`, the concentration for half-maximal inhibition (IC50) in the test with HL-60 is 53 nM; in the test with 833K it was 84 nM; in the test on DC3F [9] it was “Not Active”. In test [8], this compound registered an Inhibition of over 20 µM.
For the compound `CC[C@@]1(O)C(=O)OCc2c1cc1n(c2=O)Cc2c-1nc1c(F)c(F)ccc1c2[Si](C)(C)C`, the IC50 in the test with HL-60 is 1.01 nM; in the test on 833K, 2.1 nM; with DC3F [1], 2.5 nM. In test [6], this compound displayed an Inhibition of 1 µM. In test [7], the Enhancement was determined as 1 µM.

A word on the IC50: it is the concentration that inhibits the measured activity by half. A lower IC50 goes with higher potency.

These data come from ChEMBL document CHEMBL1159184, “7-Silylcamptothecins (silatecans): A new family of camptothecin antitumor agents” (Bioorg Med Chem Lett, 1997).
